# Read-outs that look alike come from different tables or passages of the source.
# Experiments:
# [1] = system: HIV-1 production in U1 cells; assay: U1 monocytic cell assay, IL-18-induced HIV-1 p24 antigen; assay type: cell-based; settings: for p24 production: 0.5 nM IL-18, 48 hr
# Source text: U1 monocytic cell assay. U1 cells are obtained from the AIDS Research and Reference Reagent Program, National Institute of Allergy and Infectious Diseases, NIH. U1 cells are maintained in T-175 polystyrene flasks (Falcon, Becton Dickinson, Franklin Lakes, N.J.) in medium and used when in log phase growth. Cells are counted in a hemacytometer, examined for viability by Trypan blue exclusion (>95% for all experiments) and resuspended in fresh medium at 2×10^6 per ml. Two-hundred fifty […] are added to wells of 24-well polystyrene tissue culture plates (Falcon), followed by the addition of medium or AAT to produce the final concentration to be tested in a volume of […]. After 1.0 hr of incubation (37° C., 5% CO2), 50 ml of medium (control) or stimulus diluted in medium are added to wells to produce the final concentration of stimulus to be tested. The final culture volumes are […] and contained 1×10^6 cells per ml. After 48 hr of incubation (37° C. and 5% CO2) 50 ml of 10% (vol/vol) Triton-X-100 (Fisher Scientific, Fair Lawn, N.J.) is added to each culture (final concentration of 1% vol/vol), and cultures are frozen and thawed once. This is followed by assay for HIV-1 p24 antigen by ELISA with a lower limit of detection of 31 pg/ml (NCI-Frederick Cancer Research and Development Center, Frederick, Md.). The disruption of cells due to the addition of Triton-X-100 and the freeze-thaw cycle produced cell lysates and enabled assessment of total (secreted and cell-associated) production of p24 antigen.
# Data are presented as means±SEM. Group means are compared by ANOVA using Fisher's least significant difference. For data expressed as percent change, the values for p24 in control cultures (medium alone) are subtracted from those for each culture-containing stimulus. The p24 concentrations in cultures conducted in the presence of stimulus alone are set at 100%. Percent p24 in cultures containing stimulus and AAT are calculated by dividing the measured p24 by that present in cultures containing stimulus alone. The resultant fraction is expressed as a percent.
# The U1 cell line is derived from human monocytic U937 cells into which 2 copies of HIV-1 provirus are incorporated into host genome. Exposing U1 cells to pro-inflammatory cytokines such as IL-18, IL-1, IL-6 and TNF, phorbol esters or hyperosmolarity results in the induction of HIV-1 as assessed by p24 antigen. Stimulation of U1 cells with 0.5 nM IL-18 induced large amounts of p24 antigen after 48 hr of incubation in 3 separate experiments. U1 cells cultured in medium alone (control) contained a mean of 41.3±11.5 pg/ml p24 antigen, which is increased 150-fold to 6,235±1,775 pg/ml p24 following stimulation with IL-18. […] At 1, 2 and 3 mg/ml AAT, the percent reductions observed compared to stimulation with IL-18 alone are 65±1.8, 93±3.0 and 98±1%, respectively.
# [2] = system: HIV-1 production in U1 cells; assay: U1 monocytic cell assay, IL-6-induced HIV-1 p24 antigen; assay type: cell-based; settings: for p24 antigen: 100 ng/ml IL-6
# [3] = system: HIV-1 production in U1 cells; assay: U1 monocytic cell assay, LPS-induced HIV-1 p24 antigen; assay type: cell-based; settings: for p24 antigen: 500 ng/ml LPS, 48 hrs
# [4] = system: HIV-1 production in U1 cells; assay: U1 monocytic cell assay, NaCl (hyperosmolarity)-induced HIV-1 p24 antigen; assay type: cell-based
# U1 cells = assay: U1 cell proliferation and viability (hemacytometer, trypan blue exclusion); assay type: cell-based, human; settings: 5 mg/ml AAT, 48 hrs
# Experimental: To evaluate the effect of AAT on U1 cell proliferation and viability, 3 experiments are performed in the presence or absence of 5 mg/ml AAT. U1 cells are added at 1×10^6 cells per ml and cultured for 48 hrs. Following incubation, cells are quantified using a hemacytometer. The mean±SEM cell concentrations in control and AAT-containing cultures are 2.5×10^6±0.5×10^6 and 2.4×10^6±0.3×10^6 respectively. […] For all cultures, cell viability by trypan blue exclusion is >95%. The lack of toxicity is illustrated in FIG. 13.
# [5] = system: lymphocyte-tropic HIV-1 strain A018A in PBMC; assay type: cell-based
# [6] = system: HIV-1 strain A018A in MAGI-CCR-5 cells; assay type: cell-based; settings: for mean positive cell count: +HIV-1; for inhibition of MAGI-CCR-5 cell early infection events: compared to HIV-1 alone
# NF-κB = assay: IL-18-induced NF-κB expression; assay type: cell-based; settings: compared with IL-18 alone (lane 4)
substance,measurement,setting,value
AAT: Alpha-1-antitrypsin purified from the blood of healthy volunteers to single-band homogeneity,p24 production,[1]; AAT 0.1 mg/ml,"6,879±207 pg/ml"
same,p24 production,[1]; AAT 0.5 mg/ml,"3,687±968 pg/ml"
same,p24 production,[1]; AAT 1 mg/ml,"2,029±625 pg/ml"
same,p24 production,[1]; AAT 2 mg/ml,452 ± 209 pg/mL
same,p24 production,[1]; AAT 3 mg/ml,179 ± 79 pg/mL
same,percent reduction of p24 compared to IL-18 alone,[1]; AAT 1 mg/ml,65±1.8%
same,percent reduction of p24 compared to IL-18 alone,[1]; AAT 2 mg/ml,93±3.0%
same,percent reduction of p24 compared to IL-18 alone,[1]; AAT 3 mg/ml,98±1%
same,range of inhibition of HIV-1 production in U1 cells,"[1]; all stimuli tested (IL-18, IL-6, TNF, LPS, hyperosmolarity)",73-100%
same,p24 antigen,[2]; AAT 0.1 mg/ml,"6,228±2,129 pg/ml"
same,p24 antigen,[2]; AAT 0.5 mg/ml,"3,992±1,987 pg/ml"
same,p24 antigen,[2]; AAT 1 mg/ml,"3,850±1,943 pg/ml"
same,p24 antigen,[2]; AAT 2 mg/ml,"2,597±1,253 pg/ml"
same,p24 antigen,[2]; AAT 3 mg/ml,"2,155±1,085 pg/ml"
same,p24 antigen,[2]; AAT 4 mg/ml,"1,838±881 pg/ml"
same,p24 antigen,[2]; AAT 5 mg/ml,"1,213±668 pg/ml"
same,mean percent reduction of IL-6-induced p24,[2]; AAT 3 mg/ml,80%
same,mean percent reduction of IL-6-induced p24,[2]; AAT 4 mg/ml,88%
same,mean percent reduction of IL-6-induced p24,[2]; AAT 5 mg/ml,100%
same,p24 antigen,[3]; AAT 1 mg/ml,"1,108±241 pg/ml"
same,p24 antigen,[3]; AAT 2 mg/ml,913 ± 287 pg/mL
same,p24 antigen,[3]; AAT 5 mg/ml,626 ± 257 pg/mL
same,inhibition of LPS-induced p24 production,[3]; AAT 3 mg/ml,71%
same,inhibition of LPS-induced p24 production,[3]; AAT 4 mg/ml,90%
same,inhibition of LPS-induced p24 production,[3]; AAT 5 mg/ml,86%
same,NaCl-induced 26-fold increase in p24 concentration,"[4]; 60 mM NaCl, 5 mg/ml AAT",completely inhibited
same,mean p24 level,"[4]; 60 mM NaCl, AAT 0.1 mg/ml","11,054±3,231 pg/ml"
same,mean p24 level,"[4]; 60 mM NaCl, AAT 0.5 mg/ml","7,363±485 pg/ml"
same,mean p24 level,"[4]; 60 mM NaCl, AAT 1.0 mg/ml","5,657±48 pg/ml"
same,mean p24 level,"[4]; 60 mM NaCl, AAT 3.0 mg/ml","1,919±594 pg/ml"
same,mean p24 level,"[4]; 60 mM NaCl, AAT 4.0 mg/ml",425 ± 32 pg/mL
same,mean p24 level,"[4]; 60 mM NaCl, AAT 5.0 mg/ml",266 ± 26 pg/mL
same,percent inhibition of NaCl-induced p24,[4]; AAT 3.0 mg/ml,76%
same,percent inhibition of NaCl-induced p24,[4]; AAT 4.0 mg/ml,98.3%
same,percent inhibition of NaCl-induced p24,[4]; AAT 5.0 mg/ml,100%
same,cell viability by trypan blue exclusion,U1 cells,> 95%
same,mean±SEM cell concentration after culture,U1 cells; 1×10^6 cells per ml added initially,2.4×10^6±0.3×10^6 cells per ml
same,effect on p24 antigen production of AAT present during infection only,"[5]; AAT removed, 4 days of culture in medium alone",did not affect
same,p24 produced,"[5]; PBMC infected in absence of AAT, 4 days with AAT 0.1 mg/ml","8,687±1,304 pg/ml"
same,p24 produced,"[5]; PBMC infected in absence of AAT, 4 days with AAT 0.5 mg/ml","7,392±1,299 pg/ml"
same,p24 produced,"[5]; PBMC infected in absence of AAT, 4 days with AAT 1.0 mg/ml","6,613 pg/ml"
same,p24 produced,"[5]; PBMC infected in absence of AAT, 4 days with AAT 2.0 mg/ml","6,258±1,772 pg/ml"
same,p24 produced,"[5]; PBMC infected in absence of AAT, 4 days with AAT 3.0 mg/ml","5,275±316 pg/ml"
same,p24 produced,"[5]; PBMC infected in absence of AAT, 4 days with AAT 4.0 mg/ml","4,725±101 pg/ml"
same,p24 produced,"[5]; PBMC infected in absence of AAT, 4 days with AAT 5.0 mg/ml","3,508 pg/ml"
same,reduction in p24 antigen compared to control cultures,"[5]; PBMC infected in absence of AAT, AAT 4.0 mg/ml",22%
same,reduction in p24 antigen compared to control cultures,"[5]; PBMC infected in absence of AAT, AAT 5.0 mg/ml",46%
same,p24 produced,"[5]; PBMC infected in presence of 3 mg/ml AAT, 4 days with AAT 0.1 mg/ml","6,620±2,026 pg/ml"
same,p24 produced,"[5]; PBMC infected in presence of 3 mg/ml AAT, 4 days with AAT 0.5 mg/ml","6,047±1,322 pg/ml"
same,p24 produced,"[5]; PBMC infected in presence of 3 mg/ml AAT, 4 days with AAT 1.0 mg/ml","6,014±2,055 pg/ml"
same,p24 produced,"[5]; PBMC infected in presence of 3 mg/ml AAT, 4 days with AAT 2.0 mg/ml","2,516±345 pg/ml"
same,p24 produced,"[5]; PBMC infected in presence of 3 mg/ml AAT, 4 days with AAT 3.0 mg/ml","3,360±371 pg/ml"
same,p24 produced,"[5]; PBMC infected in presence of 3 mg/ml AAT, 4 days with AAT 4.0 mg/ml","2,743±316 pg/ml"
same,p24 produced,"[5]; PBMC infected in presence of 3 mg/ml AAT, 4 days with AAT 5.0 mg/ml","2,713±645 pg/ml"
same,reduction in p24 production compared to control cultures,"[5]; PBMC infected in presence of 3 mg/ml AAT, AAT 2.0 mg/ml",71%
same,reduction in p24 production compared to control cultures,"[5]; PBMC infected in presence of 3 mg/ml AAT, AAT 3.0 mg/ml",61%
same,reduction in p24 production compared to control cultures,"[5]; PBMC infected in presence of 3 mg/ml AAT, AAT 4.0 mg/ml",65%
same,reduction in p24 production compared to control cultures,"[5]; PBMC infected in presence of 3 mg/ml AAT, AAT 5.0 mg/ml",67%
same,Maximal p24 reduction in PBMC exposed to AAT for 4 days,[5]; cells infected in the absence of AAT,46%
same,Maximal p24 reduction in PBMC exposed to AAT for 4 days,[5]; cells infected in the presence of AAT,71%
same,mean positive cell count,[6]; AAT 0.1 mg/ml,74±13
same,mean positive cell count,[6]; AAT 1.0 mg/ml,75±17
same,mean positive cell count,[6]; AAT 3.0 mg/ml,45±12
same,mean positive cell count,[6]; AAT 4.0 mg/ml,28±9
same,mean positive cell count,[6]; AAT 5.0 mg/ml,21±12
same,inhibition of MAGI-CCR-5 cell early infection events,[6]; AAT 2.0 mg/ml,23%
same,inhibition of MAGI-CCR-5 cell early infection events,[6]; AAT 3.0 mg/ml,41%
same,inhibition of MAGI-CCR-5 cell early infection events,[6]; AAT 4.0 mg/ml,66%
same,inhibition of MAGI-CCR-5 cell early infection events,[6]; AAT 5.0 mg/ml,76%
same,IL-18-induced NF-κB expression,NF-κB,reduced

# Reference: patent US7807781B2, “Inhibitors of serine protease activity and their use in methods and compositions for treatment of viral infections” (The Regents of the University of Colorado, priority 1999, dated 2010)
